The results in this text go back to US20250352532A1, “REDUCED N[…] IN PHARMACEUTICAL COMPOSITIONS COMPRISING METHYLPHENIDATE” (MEDICE Arzneimittel Pütter GmbH & Co. KG, priority 2024, published 2025).

This series can be described thus: N-nitrosomethylphenidate content of methylphenidate compositions by UHPLC-MS/MS. The format is physicochemical. Particulars: verbal assessment of Table 2; antioxidant/stabilizer in methylphenidate composition. The procedure:
To determine the effect of various antioxidants or stabilizers on the prevention of nitrosamine formation in compositions containing methylphenidate, different pharmaceutical compositions were prepared as described in Example 1 above, except that antioxidants/stabilizers other than ascorbyl palmitate were used. However, for better comparability, the molar ratio of methylphenidate: antioxidant/stabilizer was kept constant at 1:3 in all compositions (except for the composition with no antioxidant/stabilizer). Accordingly, the compositions of Example 1 and Comparative Examples 2 to 7 differ only in the type of antioxidant/stabilizer and are otherwise composed exactly as shown in Table 1 above for Example 1. The content of N-nitrosomethylphenidate in the compositions was determined by UHPLC-MS/MS. Accordingly, the term “nitrosamine” in the present context refers to “N-nitrosomethylphenidate”. For sample preparation, the compositions were ground and the resulting powders were extracted with methanol. The following measurement conditions were used for the N-nitrosomethylphenidate determination: • LC column: Waters BEH Shield RP18 (100x2.1 mm, 1.7 um) • Flow rate: 0.4 mL/min • Column temperature: 50° C. . . . • Mobile phase: Phase A: Water with 0.1% by volume formic acid • Phase B: Acetonitrile • Gradient conditions: […]

Consider `CCCCCCCCCCCCCCCC(=O)OC[C@H](O)[C@H]1OC(=O)C(O)=C1O` [ascorbyl palmitate], for which the “effectiveness in reducing nitrosamine formation in compositions with methylphenidate” value is “by far the most effective”.
